Structures can show the parent of a compound that is named as a salt. Where two headings read alike, the source gives them in different places.
Molecular target: T1, hNaV1.7 (Homo sapiens, UniProt Q15858)
T1 construct: expressed in transfected cells; host or cells: HEK293
Assay: QPatch NaV1.7 assay
Format: cell-based
Details: HEK293-hNaV1.7 cells, QPatch16x
Protocol: The compounds of the invention were tested in a QPatch NaV1.7 assay.
HEK293-hNaV1.7 cells were grown in DMEM-F12+10% FBS culture media at 37° C. At a confluency of 50-70% cells were dissociated from culture flasks & triturated to ensure unicellular cell suspension; cell density was measured & adjusted to 2-3×10^6 cells/ml. Recordings were obtained using QPatch16x. The external solution was (in mM): NaCl, 128; KCl, 5; MgCl2, 2; CaCl2, 2; Glucose, 30; HEPES, 15; pH 7.3, 305-315 mOsm. Following seal formation and whole-cell access using internal solution (containing in mM: CsF, 135; EGTA/CsOH, 1/5; HEPES 10; NaCl, 10; pH 7.3, 310-320mOsM), voltage pulse protocols were applied. Initially a steady state inactivation voltage protocol was used to determine the half-maximal voltage for steady state inactivation (V1/2 SSI). Two holding voltages were used to determine test drug inhibition: −90 mV, where most of the channels are in a closed state; and V1/2 SSI, where half of the channels are inactivated. Currents were elicited every 10 seconds by stepping to a membrane potential of 0 mV for 20 ms. Four-point cumulative concentration responses were derived by determining the peak current amplitude at each concentration of test drug over 120 second application. Curves were fitted with the Hill equation yielding pIC50 values at −90 mV and V1/2 SSI holding potentials.

[1] = holding voltage V1/2 SSI, where half of the channels are inactivated, read-out: QP Nav1.7 SSI vhalf pIC50 (converted)
[2] = holding voltage −90 mV, where most of the channels are in a closed state, read-out: QP Nav1.7 - 90 mV pIC50 (converted)

T1 sequence (Q15858 whole entry): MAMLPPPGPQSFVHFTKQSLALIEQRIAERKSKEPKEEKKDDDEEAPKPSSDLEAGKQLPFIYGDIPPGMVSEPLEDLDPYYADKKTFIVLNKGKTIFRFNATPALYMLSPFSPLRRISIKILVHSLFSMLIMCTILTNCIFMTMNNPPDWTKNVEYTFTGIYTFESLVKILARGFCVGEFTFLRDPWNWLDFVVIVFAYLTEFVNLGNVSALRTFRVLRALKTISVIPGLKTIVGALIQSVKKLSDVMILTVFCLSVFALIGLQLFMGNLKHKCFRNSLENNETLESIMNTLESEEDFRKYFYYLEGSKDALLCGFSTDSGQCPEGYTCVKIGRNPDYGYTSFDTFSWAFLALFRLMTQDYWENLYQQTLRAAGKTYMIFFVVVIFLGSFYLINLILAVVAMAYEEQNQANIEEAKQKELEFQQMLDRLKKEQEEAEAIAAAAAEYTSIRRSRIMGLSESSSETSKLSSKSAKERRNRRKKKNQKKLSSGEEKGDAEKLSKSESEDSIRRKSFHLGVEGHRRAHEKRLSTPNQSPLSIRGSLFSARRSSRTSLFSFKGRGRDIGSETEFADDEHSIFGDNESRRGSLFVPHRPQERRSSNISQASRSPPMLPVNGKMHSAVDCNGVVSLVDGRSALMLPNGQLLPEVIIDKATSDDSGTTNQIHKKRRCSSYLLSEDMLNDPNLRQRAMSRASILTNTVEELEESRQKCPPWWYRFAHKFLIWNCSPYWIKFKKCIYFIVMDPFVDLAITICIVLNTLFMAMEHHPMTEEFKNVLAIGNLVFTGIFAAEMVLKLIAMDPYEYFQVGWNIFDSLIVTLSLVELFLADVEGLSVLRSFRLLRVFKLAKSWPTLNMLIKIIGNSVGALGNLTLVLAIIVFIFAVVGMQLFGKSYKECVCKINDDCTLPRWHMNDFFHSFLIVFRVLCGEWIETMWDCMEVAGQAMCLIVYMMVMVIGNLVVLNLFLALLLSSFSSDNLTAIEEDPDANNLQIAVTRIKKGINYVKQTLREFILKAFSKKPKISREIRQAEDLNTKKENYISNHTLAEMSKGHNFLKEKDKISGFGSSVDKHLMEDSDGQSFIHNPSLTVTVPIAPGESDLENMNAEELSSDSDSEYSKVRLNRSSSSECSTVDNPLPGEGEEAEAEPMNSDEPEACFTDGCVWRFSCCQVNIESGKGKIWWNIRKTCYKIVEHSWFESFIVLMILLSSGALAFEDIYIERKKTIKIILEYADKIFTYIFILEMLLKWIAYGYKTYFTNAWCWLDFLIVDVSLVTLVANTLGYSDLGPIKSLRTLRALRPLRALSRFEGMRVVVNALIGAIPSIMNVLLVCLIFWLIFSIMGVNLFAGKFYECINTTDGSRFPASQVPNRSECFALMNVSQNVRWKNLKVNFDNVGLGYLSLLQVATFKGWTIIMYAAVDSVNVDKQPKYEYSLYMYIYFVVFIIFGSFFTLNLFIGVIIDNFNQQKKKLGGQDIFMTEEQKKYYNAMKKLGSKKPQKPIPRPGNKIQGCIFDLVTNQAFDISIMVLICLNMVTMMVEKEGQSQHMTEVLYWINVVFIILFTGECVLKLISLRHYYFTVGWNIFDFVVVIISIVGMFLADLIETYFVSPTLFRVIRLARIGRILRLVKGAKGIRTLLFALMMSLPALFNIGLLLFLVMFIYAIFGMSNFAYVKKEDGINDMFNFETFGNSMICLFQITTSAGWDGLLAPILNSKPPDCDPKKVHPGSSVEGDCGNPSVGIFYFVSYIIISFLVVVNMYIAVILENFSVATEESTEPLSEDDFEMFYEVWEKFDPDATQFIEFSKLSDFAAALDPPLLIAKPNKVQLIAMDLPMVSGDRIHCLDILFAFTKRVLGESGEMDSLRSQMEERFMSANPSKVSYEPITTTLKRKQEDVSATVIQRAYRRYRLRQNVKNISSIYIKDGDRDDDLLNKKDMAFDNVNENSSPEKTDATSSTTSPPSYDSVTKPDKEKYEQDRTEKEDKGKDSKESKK

IC50 [1]	IC50 [2]	SMILES
12.6 µM	126 µM	Cc1cc(-c2ccc(OC(F)(F)F)cc2)nc([C@@H]2CC[C@]3(CCN(C)C3=O)N2)n1 [Example 29, (2S,5R)-7-Methyl-2-[4-methyl-6-[4-(trifluoromethoxy)phenyl]pyrimidin-2-yl]-1,7-diazaspiro[4.4]nonan-6-one hydrochloride]
20 µM	316 µM	Cc1cc(-c2ccc(OC(F)(F)F)cc2)nc([C@H]2CC[C@]3(CCN(C)C3=O)N2)n1 [Example 30, (2R,5R)-7-Methyl-2-[4-methyl-6-[4-(trifluoromethoxy)phenyl]pyrimidin-2-yl]-1,7-diazaspiro[4.4]nonan-6-one hydrochloride]
3.16 µM	100 µM	Cc1cc(-c2cc(OC(F)(F)F)ccc2F)nc([C@@H]2CC[C@@]3(CCN(C)C3=O)N2)n1 [Example 31, (2S,5S)-2-[4-[2-Fluoro-5-(trifluoromethoxy)phenyl]-6-methyl-pyrimidin-2-yl]-7-methyl-1,7-diazaspiro[4.4]nonan-6-one hydrochloride]
2.51 µM	39.8 µM	Cc1cc(-c2cc(OC(F)(F)F)ccc2F)nc([C@H]2CC[C@@]3(CCN(C)C3=O)N2)n1 [Example 32, (2R,5S)-2-[4-[2-Fluoro-5-(trifluoromethoxy)phenyl]-6-methyl-pyrimidin-2-yl]-7-methyl-1,7-diazaspiro[4.4]nonan-6-one hydrochloride]
2 µM	20 µM	Cc1cc(-c2cc(OC(F)(F)F)ccc2F)nc([C@H]2CC[C@]3(CCN(C)C3=O)N2)n1 [Example 33, (2R,5R)-2-[4-[2-Fluoro-5-(trifluoromethoxy)phenyl]-6-methyl-pyrimidin-2-yl]-7-methyl-1,7-diazaspiro[4.4]nonan-6-one hydrochloride]
7.94 µM	79.4 µM	Cc1cc(-c2cc(OC(F)(F)F)ccc2F)nc([C@@H]2CC[C@]3(CCN(C)C3=O)N2)n1 [Example 34, (2S,5R)-2-[4-[2-Fluoro-5-(trifluoromethoxy)phenyl]-6-methyl-pyrimidin-2-yl]-7-methyl-1,7-diazaspiro[4.4]nonan-6-one hydrochloride]
1.58 µM	15.8 µM	CCOc1ccc(F)c(-c2cc(C)nc([C@H]3CC[C@@]4(CCCNC4=O)N3)n2)c1 [Example 37, hydrochloride]
3.16 µM	50.1 µM	CCOc1ccc(F)c(-c2cc(C)nc([C@@H]3CC[C@@]4(CCCNC4=O)N3)n2)c1 [Example 38, hydrochloride]
15.8 µM	126 µM	Cc1cc(-c2ccc(C(F)(F)F)cc2)nc([C@H]2CC[C@@]3(CCNC3=O)N2)n1 [Example 39, (2R,5S)-2-[4-Methyl-6-[4-(trifluoromethyl)phenyl]pyrimidin-2-yl]-1,7-diazaspiro[4.4]-nonan-6-one hydrochloride]
31.6 µM	158 µM	Cc1cc(-c2ccc(C(F)(F)F)cc2)nc([C@@H]2CC[C@]3(CCNC3=O)N2)n1 [Example 40, (2S,5R)-2-[4-Methyl-6-[4-(trifluoromethyl)phenyl]-pyrimidin-2-yl]-1,7-diazaspiro[4.4]nonan-6-one hydrochloride]
2.51 µM	25.1 µM	Cc1cc(-c2ccc(C(F)(F)F)cc2)nc([C@@H]2CC[C@@]3(CCNC3=O)N2)n1 [Example 41, (2S,5S)-2-[4-Methyl-6-[4(trifluoromethyl)-phenyl]-pyrimidin-2-yl]-1,7-diazaspiro[4.4]nonan-6-one hydrochloride]
50.1 µM	501 µM	Cc1cc(-c2ccc(C(F)(F)F)cc2)nc([C@H]2CC[C@]3(CCNC3=O)N2)n1 [Example 42, (2R,5R)-2-[4-Methyl-6-[4-(trifluoromethyl)phenyl]pyrimidin-2-yl]-1,7-diazaspiro[4.4]nonan-6-one hydrochloride]
5.01 µM	31.6 µM	Cc1cc(-c2ccc(C(F)(F)F)cc2)nc([C@H]2CC[C@@]3(CC(C)(C)NC3=O)N2)n1 [Example 43, (2R,5S)-8,8-Dimethyl-2-[4-methyl-6-[4-(trifluoromethyl)phenyl]pyrimidin-2-yl]-1,7-diazaspiro[4.4]nonan-6-one hydrochloride]
